15 compounds from ChEMBL document CHEMBL4024768, “Discovery and Optimization of Thiazolidinyl and Pyrrolidinyl Derivatives as Inhaled PDE4 Inhibitors for Respiratory Diseases” (J Med Chem, 2017) can be followed below.

The IC50 is the midpoint of a concentration-inhibition curve.

The nature of one assay: Inhibition of PDE4 in human PBMC assessed as reduction in LPS-induced TNFalpha release after 18 hrs by quantitative ELISA.
As for `CS(=O)(=O)N1CCC[C@H]1C(=O)O[C@@H](Cc1c(Cl)c[n+]([O-])cc1Cl)c1ccc(OC(F)F)c(OCC2CC2)c1` (relative stereo), the IC50 was 4.2 nM. On the same count and under the same terms, for `CN(C)C(=O)c1cccc(S(=O)(=O)N2CCS[C@@H]2C(=O)O[C@@H](Cc2c(Cl)c[n+]([O-])cc2Cl)c2ccc(OC(F)F)c(OCC3CC3)c2)c1` the value was 0.047 nM. On the same count and under the same terms, for `CN(C)C(=O)c1cccc(S(=O)(=O)N2CCS[C@H]2C(=O)O)c1` the value was over 1000 nM; for `CN(C)C(=O)c1cccc(S(=O)(=O)N2CCC[C@@H]2C(=O)O[C@@H](Cc2c(Cl)c[n+]([O-])cc2Cl)c2ccc(OC(F)F)c(OCC3CC3)c2)c1` (relative stereo), 0.38 nM.

For the compound `O=C(O[C@@H](Cc1c(Cl)c[n+]([O-])cc1Cl)c1ccc(OC(F)F)c(OCC2CC2)c1)[C@@H]1CCCN1S(=O)(=O)c1ccccc1` (relative stereo), the IC50 was found to be 0.4 nM.

Regarding `COc1cc([C@H](Cc2c(Cl)c[n+]([O-])cc2Cl)OC(=O)[C@@H]2SCCN2S(=O)(=O)c2cccc(C(=O)N(C)C)c2)ccc1OC(F)F` (relative stereo), the IC50 was found to be 0.032 nM. The same measure, in the same setting: for `COCCC(=O)N1CCS[C@H]1C(=O)O[C@@H](Cc1c(Cl)c[n+]([O-])cc1Cl)c1ccc(OC(F)F)c(OCC2CC2)c1` (relative stereo) the value was 0.86 nM. As to `O=C(O[C@@H](Cc1c(Cl)c[n+]([O-])cc1Cl)c1ccc(OC(F)F)c(OCC2CC2)c1)[C@@H]1CCCCN1S(=O)(=O)c1ccccc1` (relative stereo), the IC50 amounted to 0.203 nM. On the same count and under the same terms, for `COCCS(=O)(=O)N1CCC[C@H]1C(=O)O[C@@H](Cc1c(Cl)c[n+]([O-])cc1Cl)c1ccc(OC(F)F)c(OCC2CC2)c1` (relative stereo) the value was 0.31 nM.

Another assay can be described thus: Inhibition of PDE4 in human U937 cell lysates assessed as residual cAMP after 2.5 mins by LANCE assay. A general note: Time-resolved FRET reads energy transfer from a long-lived donor to a nearby acceptor.
As for `O=C(c1ccccc1)c1ccsc1C(=O)O[C@@H](Cc1c(Cl)c[n+]([O-])cc1Cl)c1ccc(OC(F)F)c(OCC2CC2)c1`, the IC50 turned out to be 0.32 nM. Take `CN(C)C(=O)c1cccc(S(=O)(=O)N2CCS[C@@H]2C(=O)O[C@H](Cc2c(Cl)c[n+]([O-])cc2Cl)c2ccc(OC(F)F)c(OCC3CC3)c2)c1`: the IC50 was determined as 6.4 nM. Same read-out and setting: the value for `CN(C)C(=O)c1cccc(S(=O)(=O)N2CCS[C@H]2C(=O)O[C@H](Cc2c(Cl)c[n+]([O-])cc2Cl)c2ccc(OC(F)F)c(OCC3CC3)c2)c1` was 3.01 nM. On the same count and under the same terms, for `CS(=O)(=O)N1CCC[C@H]1C(=O)O[C@@H](Cc1c(Cl)c[n+]([O-])cc1Cl)c1ccc(OC(F)F)c(OCC2CC2)c1` (relative stereo) the value was 0.504 nM; for `CN(C)C(=O)c1cccc(S(=O)(=O)N2CCS[C@@H]2C(=O)O[C@@H](Cc2c(Cl)c[n+]([O-])cc2Cl)c2ccc(OC(F)F)c(OCC3CC3)c2)c1`, 0.047 nM; for `CN(C)C(=O)c1cccc(S(=O)(=O)N2CCC[C@@H]2C(=O)O[C@@H](Cc2c(Cl)c[n+]([O-])cc2Cl)c2ccc(OC(F)F)c(OCC3CC3)c2)c1` (relative stereo), 0.0533 nM. As for `O=C(O[C@@H](Cc1c(Cl)c[n+]([O-])cc1Cl)c1ccc(OC(F)F)c(OCC2CC2)c1)[C@@H]1CCCN1S(=O)(=O)c1ccccc1` (relative stereo), the IC50 came out at 0.109 nM. In the case of `COc1cc([C@H](Cc2c(Cl)c[n+]([O-])cc2Cl)OC(=O)[C@@H]2SCCN2S(=O)(=O)c2cccc(C(=O)N(C)C)c2)ccc1OC(F)F` (relative stereo), the IC50 amounted to 0.014 nM. As to `O=C(O[C@@H](Cc1c(Cl)c[n+]([O-])cc1Cl)c1ccc(OC(F)F)c(OCC2CC2)c1)c1cccn1S(=O)(=O)c1ccccc1`, the IC50 was found to be 0.825 nM. `O=C(O[C@@H](Cc1c(Cl)c[n+]([O-])cc1Cl)c1ccc(OC(F)F)c(OCC2CC2)c1)c1ccccc1`: the IC50 amounted to 0.072 nM. As to `O=C(O[C@@H](Cc1c(Cl)c[n+]([O-])cc1Cl)c1ccc(OC(F)F)c(OCC2CC2)c1)c1ccccc1S(=O)(=O)c1ccccc1`, the IC50 was 0.323 nM. As for `COCCC(=O)N1CCS[C@H]1C(=O)O[C@@H](Cc1c(Cl)c[n+]([O-])cc1Cl)c1ccc(OC(F)F)c(OCC2CC2)c1` (relative stereo), the IC50 is 0.028 nM. In the case of `O=C(O[C@@H](Cc1c(Cl)c[n+]([O-])cc1Cl)c1ccc(OC(F)F)c(OCC2CC2)c1)[C@@H]1CCCCN1S(=O)(=O)c1ccccc1` (relative stereo), the IC50 turned out to be 0.094 nM. On to `COCCS(=O)(=O)N1CCC[C@H]1C(=O)O[C@@H](Cc1c(Cl)c[n+]([O-])cc1Cl)c1ccc(OC(F)F)c(OCC2CC2)c1` (relative stereo), for which the IC50 is 0.0442 nM.
